Measurements as given in publication PMC8157322, “Gd(III)–Pt(IV) theranostic contrast agents for tandem MR imaging and chemotherapy” (Chemical Science, 2020).

How the values were obtained:
HeLa cells [1] = assay: MR imaging of cell pellets at 7 T; format: cell-based; conditions: 6 h incubation, cisplatin 15 μM, 1 100 μM, GP1 60 μM, GP2 250 μM
MCF-7 cells = assay: Cell viability assay (CellTiter-Glo 2.0); format: cell-based
Experimental: (§1) To assess the cytotoxicity of GP1 and GP2in vitro, cell viability assays were performed to determine the IC50 concentrations in three cancer cell lines (A2780, HeLa, and MCF-7). Table 2 summarizes the IC50 concentrations of both agents compared to those of cisplatin and carboplatin. […] For all cell lines, GP1 was less toxic than cisplatin but followed the same trend of highest toxicity in A2780 cells and least toxic in MCF-7 cells. GP1 releases cisplatin intracellularly, therefore the apparent difference in toxicity of the two is likely due to decreased cell permeability of GP1 caused by the Gd(III) complex. However, because GP1 is inert in the extracellular matrix, higher doses can be safely administered to account for the decreased cell permeability. […]
(§2) lines were grown in a humidified incubator at 37 °C and 5% CO2 and were harvested using 0.25% TrypLE. Cells were grown for 24 hours after plating before each experiment. All solutions were filtered through […] sterile filters before use.
(§3) Viability Assays. A2780, HeLa, and MCF-7 cells were plated at a density of 3,000 cells per well (100 µL) in an opaque white 96-well plate. Cells were dosed with 100 µL of solutions of GP1, GP2, cisplatin, or carboplatin in MEM and incubated for 48 hours (GP1 or cisplatin) or 72 hours (GP2 or carboplatin). After incubation, 50 µL CellTiter-Glo 2.0 (Promega, Madison, WI) was added to each well and the assay was carried out following the manufacturer’s protocol.
(§4) Luminescence of the wells was measured using a Synergy H1 microplate reader (BioTek, Winooski, VT). Viability was determined by comparing luminescence readings of the cells treated with agent to untreated control cells. […]

HeLa cells [2] = assay: Cell viability assay (CellTiter-Glo 2.0); format: cell-based
Experimental: as §1, §2, §3, §4

A2780 cells [3] = assay: Cell viability assay (CellTiter-Glo 2.0); format: cell-based
Experimental: as §1, §2, §3, §4

A2780 cells [4] = assay: MR imaging of cell pellets at 7 T; format: cell-based; conditions: A2780, 7 T, 6 h incubation; cisplatin 7.5 μM, 1 100 μM, GP1 30 μM, GP2 60 μM
HeLa cells [5] = assay: Concentration-dependent cell uptake, Gd and Pt by ICP-MS; format: cell-based; conditions: incubated near IC50 concentrations, 24 h
Experimental: (§5) Accumulation of GP1 and GP2 in cells was measured by concentration-dependent uptake experiments in A2780 and HeLa cells. Individual concentration-dependent uptake graphs are found in the ESI. ^†Table 3 compares the accumulation of Gd and Pt in A2780 and HeLa cells that were incubated with GP1, GP2, cisplatin, and carboplatin near their respective IC50 concentrations. For comparison, both cell lines were dosed with complex 1 at similar concentrations as GP1 and GP2. […] First, the accumulation of Gd in both cell lines for both agents is higher than what is typically considered the amount necessary for detection by MR (high μM concentrations).[32,33] […]
as §4
(§6) Aliquots of cell suspensions were mixed with the Guava ViaCount Reagent and allowed to stain for 5 minutes. The samples were vortexed for 20 seconds and cell count was determined via manual analysis using a Guava EasyCyte Mini PCA and ViaCount software. […] Performance of the instrument was assessed daily using Guava-Check Beads and the manufacturer’s protocol and Daily Check software.
(§7) Quantification of Gadolinium and Platinum with Inductively Coupled Plasma Mass Spectrometry. […]

A2780 cells [6] = assay: as above; format: cell-based; conditions: incubated near IC50 concentrations, 24 h
Experimental: as §5, §4, §6, §7

[7] = Aqueous solubility (qualitative); format: physicochemical; conditions: aqueous solutions / solvents
[8] = T1/T2 relaxivity measurements in PBS; format: physicochemical; conditions: 37 °C
Experimental: The T1 relaxivity (r1) and T2 relaxivity (r2) of 1, GP1, and GP2 were measured at both low (1.41 T) and high (7 T) magnetic field strength in phosphate-buffered saline (PBS) to quantify how well they behave as MR contrast agents. […] The relaxivity values for 1 are well within the range of what is expected for a small molecule Gd(III) complex.[34] […] At 7 T, there was little change in r1 for both agents, while both r2 values increased, as expected. […]
solution. These capillaries were imaged using a Bruker PharmaScan 7 T MR imaging spectrometer (Bruker BioSpin, Billerica, MA, USA). T1 relaxation times were measured using a rapid-acquisition rapid-echo (RARE-VTR) T1-map pulse sequence with static TE (10 ms) and […]
parameters were as follows: field of view (FOV) = 25 x 25 mm2, matrix size (MTX) = 256 x 256, number of axial slices = 5, slice thickness (SI) = 1.0 mm, and averages (NEX) = 4. T1 analysis was carried out using the image sequence analysis tool in Paravision 5.0 pl2 software (Bruker, Billerica, MA, USA) with monoexponential curve-fitting of image intensities of selected regions of interest (ROIs) for each axial slice. […]
(§8) Fig. S2 Graph of r1 of (A) GP1 measured at 1.41 T (B) GP1 measured at 7 T (C) GP2 measured at 1.41 T
(D) GP2 measured at 7 T (E) 1 measured at 1.41 T (F) 1 measured at 7 T. All measurements were taken in PBS at 37 °C (G) 1 measured at 1.41 T with 5 mM GSH (H) GP1 measured at 1.41 T with 5 mM GSH and (I) GP2 measured at 1.41 T with 5 mM GSH.
(§9) Table S1. r1 of GP1, GP2, and 1 in PBS with 5 mM glutathione at 37 °C
(§10) GP1 (5 mM GSH) GP2 (5 mM GSH) 1 (5 mM GSH)

[9] = Relaxivity after incubation in 5 mM GSH in PBS; format: physicochemical; conditions: 1.41 T, PBS with 5 mM glutathione, 37 °C
Experimental: This is possibly due to an increase in the rotational correlation time (τR) or a change in the inner sphere hydration number (q) of Gd(III). The differences in relaxivity of GP1 and GP2 compared to 1 offers the possibility of monitoring reduction of the agents by MR at both high and low field strength. To test this, GP1, GP2, and 1 were incubated in 5 mM GSH in PBS and the relaxivity was measured (see ESI ^†). The relaxivity of each converged to the same value (r1 of 4.4, 4.5, and 4.6 mM^−1 s^−1 for 1, GP1, and GP2 respectively), indicating the same Gd(III) species was formed after reduction. The significant change in r1 upon reduction of GP1 and GP2 theoretically could be used to monitor intracellular reduction by MR. However, further testing needs to be done to determine if these agents are suitable for this application.
as §8
(D) GP2 measured at 7 T (E) 1 measured at 1.41 T (F) 1 measured at 7 T. All measurements were taken
in PBS at 37 °C (G) 1 measured at 1.41 T with 5 mM GSH (H) GP1 measured at 1.41 T with 5 mM GSH
and (I) GP2 measured at 1.41 T with 5 mM GSH.
as §9, §10

N.N.[Cl][Pt][Cl] [Cisplatin, cisplatin]
T1 of cell pellet (HeLa cells [1]): 2236 ± 19 ms
Δ R1 (increase in R1 vs untreated control) (HeLa cells [1]): 2.7%
IC50 (MCF-7 cells; MCF-7, 48 h incubation): 22.4 ± 2 µM
IC50 (HeLa cells [2]; 48 h incubation): 14.7 ± 1.2 µM
IC50 (A2780 cells [3]; A2780, 48 h incubation): 7.6 ± 2.3 µM
T1 of cell pellet (A2780 cells [4]): 2216 ± 26 ms
Δ R1 (increase in R1 vs untreated control) (A2780 cells [4]): 4.6%

N.N.O=C([O-])C1(C(=O)[O-])CCC1.[Pt+2] [Carboplatin, carboplatin]
IC50 (MCF-7 cells; MCF-7, 72 h incubation): 124 ± 4 µM
IC50 (HeLa cells [2]; 72 h incubation): 71.2 ± 4.9 µM
IC50 (A2780 cells [3]; A2780, 72 h incubation): 15.3 ± 5.8 µM
Cell accumulation of Pt (HeLa cells [5]): 0.60 ± 0.11 fmol per cell
Cell accumulation of Pt (A2780 cells [6]): 0.22 ± 0.02 fmol per cell

[NH2][Pt]([NH2])([OH])([OH])([Cl])[Cl] [Complex 2]
Solubility [7]: insoluble in most solvents

O=C([O-])CN1CCN(CCCCCC(=O)O)CCN(CC(=O)[O-])CCN(CC(=O)[O-])CC1.[Gd+3] [Complex 1]
r1 (T1 relaxivity) ([8]; 1.41 T): 4.1 mM⁻¹ s⁻¹
r1 (T1 relaxivity) ([8]; 7 T): 4.7 mM⁻¹ s⁻¹
T1 of cell pellet (HeLa cells [1]): 2178 ± 42 ms
Δ R1 (increase in R1 vs untreated control) (HeLa cells [1]): 5.5%
T1 of cell pellet (A2780 cells [4]): 2170 ± 34 ms
Δ R1 (increase in R1 vs untreated control) (A2780 cells [4]): 6.8%
r1 with 5 mM GSH [9]: 4.4 mM⁻¹ s⁻¹

[NH2][Pt]1([NH2])([OH])([OH])[O]C(=O)C2(CCC2)C(=O)[O]1 [Complex 3]
Solubility [7]: insoluble in most solvents
